Assay results taken from ChEMBL document CHEMBL1140679, “The identification of potent, selective, and bioavailable cathepsin S inhibitors” (Bioorg Med Chem Lett, 2007).

Experiments:
Cathepsin K [1] = target: T1, Cathepsin K (Homo sapiens, UniProt P43235); assay: Inhibition of human cathepsin K
T1 sequence (P43235 whole entry): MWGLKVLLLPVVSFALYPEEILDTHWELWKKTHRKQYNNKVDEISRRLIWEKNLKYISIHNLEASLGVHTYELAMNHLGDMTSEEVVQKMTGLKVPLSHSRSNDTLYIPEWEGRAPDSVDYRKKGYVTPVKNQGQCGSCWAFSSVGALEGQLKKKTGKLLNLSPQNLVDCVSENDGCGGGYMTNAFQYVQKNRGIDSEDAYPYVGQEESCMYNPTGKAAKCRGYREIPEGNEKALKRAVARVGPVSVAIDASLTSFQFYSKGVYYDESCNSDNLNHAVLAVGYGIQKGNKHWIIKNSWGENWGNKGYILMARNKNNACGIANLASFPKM

[2] = Half life in Sprague-Dawley rat; assay type: ADME, organism-based; settings: in vivo
Hepatocyte = assay: Metabolic stability in rat hepatocytes after 2 hrs; assay type: ADME, cell-based
Cathepsin B [3] = target: Cathepsin B (Mus musculus, UniProt P10605); assay: Inhibition of mouse recombinant cathepsin B
Cathepsin B (Mus musculus, UniProt P10605), sequence (P10605 whole entry): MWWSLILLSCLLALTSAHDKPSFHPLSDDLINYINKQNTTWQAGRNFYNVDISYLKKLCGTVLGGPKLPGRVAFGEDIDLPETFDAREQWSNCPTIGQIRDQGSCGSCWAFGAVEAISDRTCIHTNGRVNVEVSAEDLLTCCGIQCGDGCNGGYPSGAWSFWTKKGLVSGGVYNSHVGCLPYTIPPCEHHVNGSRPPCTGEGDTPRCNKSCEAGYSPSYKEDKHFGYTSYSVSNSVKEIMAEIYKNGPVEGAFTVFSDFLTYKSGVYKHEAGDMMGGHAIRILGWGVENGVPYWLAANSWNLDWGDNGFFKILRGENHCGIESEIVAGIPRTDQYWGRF

[4] = Cmax in Sprague-Dawley rat; assay type: ADME, organism-based; settings: in vivo
Cathepsin K [5] = target: T2, Cathepsin K (Mus musculus, UniProt P55097); assay: Inhibition of mouse recombinant cathepsin K
T2 sequence (P55097 whole entry): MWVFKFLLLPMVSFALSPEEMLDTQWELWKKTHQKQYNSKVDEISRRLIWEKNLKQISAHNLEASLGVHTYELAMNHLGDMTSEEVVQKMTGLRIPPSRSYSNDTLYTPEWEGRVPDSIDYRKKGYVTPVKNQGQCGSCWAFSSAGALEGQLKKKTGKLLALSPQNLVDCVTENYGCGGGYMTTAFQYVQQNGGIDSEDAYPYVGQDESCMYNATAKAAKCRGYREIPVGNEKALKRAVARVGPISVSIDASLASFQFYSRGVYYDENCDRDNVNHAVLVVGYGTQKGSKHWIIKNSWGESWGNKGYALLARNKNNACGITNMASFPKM

Cathepsin S [6] = target: Cathepsin S (Homo sapiens, UniProt P25774); assay: Inhibition of human cathepsin S
Cathepsin S (Homo sapiens, UniProt P25774), sequence (P25774 whole entry): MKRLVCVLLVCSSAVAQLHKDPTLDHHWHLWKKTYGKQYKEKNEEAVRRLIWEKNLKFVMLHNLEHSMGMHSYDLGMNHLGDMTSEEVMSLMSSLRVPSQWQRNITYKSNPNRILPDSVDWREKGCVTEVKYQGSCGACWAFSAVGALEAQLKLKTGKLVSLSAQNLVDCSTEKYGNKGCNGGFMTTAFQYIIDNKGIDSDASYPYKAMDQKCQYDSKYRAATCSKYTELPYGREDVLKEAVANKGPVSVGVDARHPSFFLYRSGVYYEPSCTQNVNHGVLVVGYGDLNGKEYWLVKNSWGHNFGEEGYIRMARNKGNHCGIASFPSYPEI

Cathepsin B [7] = target: Cathepsin B (Rattus norvegicus, UniProt P00787); assay: Inhibition of rat liver lysosomal cathepsin B
Cathepsin B (Rattus norvegicus, UniProt P00787), sequence (P00787 whole entry): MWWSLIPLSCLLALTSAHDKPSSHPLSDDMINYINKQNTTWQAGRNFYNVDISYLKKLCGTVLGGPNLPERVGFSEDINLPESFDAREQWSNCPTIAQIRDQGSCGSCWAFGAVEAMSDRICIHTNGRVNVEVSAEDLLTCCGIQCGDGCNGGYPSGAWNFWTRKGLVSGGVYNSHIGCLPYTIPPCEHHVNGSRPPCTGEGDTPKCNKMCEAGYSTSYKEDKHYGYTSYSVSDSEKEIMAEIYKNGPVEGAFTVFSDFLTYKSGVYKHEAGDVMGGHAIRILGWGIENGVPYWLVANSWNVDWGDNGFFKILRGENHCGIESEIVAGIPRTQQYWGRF

[8] = Inhibition of antigen presentation in mouse B cells; assay type: functional, cell-based
Mus musculus [9] = assay: AUC (0 to 24 hrs) in C57BL/6 mouse at 5 mg/kg, po; assay type: ADME, organism-based, Plasma; parameters: time < 24 hr, dose 5 mg/kg, route oral; settings: in vivo
Cathepsin S [10] = target: Cathepsin S (Rattus norvegicus, UniProt Q02765); assay: Inhibition of rat spleen cathepsin S; assay type: tissue-based
Cathepsin S (Rattus norvegicus, UniProt Q02765), sequence (Q02765 whole entry): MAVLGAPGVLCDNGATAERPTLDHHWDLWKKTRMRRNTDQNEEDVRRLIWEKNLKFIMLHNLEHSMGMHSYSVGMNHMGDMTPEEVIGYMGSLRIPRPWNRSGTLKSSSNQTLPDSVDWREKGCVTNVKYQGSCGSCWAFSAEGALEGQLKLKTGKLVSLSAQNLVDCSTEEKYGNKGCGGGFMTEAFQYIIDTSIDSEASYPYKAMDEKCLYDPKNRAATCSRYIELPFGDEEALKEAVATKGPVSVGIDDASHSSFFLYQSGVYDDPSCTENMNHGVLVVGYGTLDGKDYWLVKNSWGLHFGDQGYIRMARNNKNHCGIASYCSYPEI

Mus musculus [11] = assay: AUC (0 to 24 hrs) in C57BL/6 mouse at 50 mg/kg, po; assay type: ADME, organism-based, Plasma; parameters: time < 24 hr, dose 50 mg/kg, route oral; settings: in vivo
[12] = Bioavailability in Sprague-Dawley rat; assay type: ADME, organism-based; settings: in vivo
Cathepsin S [13] = target: Cathepsin S (Mus musculus, UniProt O70370); assay: Inhibition of mouse recombinant cathepsin S
Cathepsin S (Mus musculus, UniProt O70370), sequence (O70370 whole entry): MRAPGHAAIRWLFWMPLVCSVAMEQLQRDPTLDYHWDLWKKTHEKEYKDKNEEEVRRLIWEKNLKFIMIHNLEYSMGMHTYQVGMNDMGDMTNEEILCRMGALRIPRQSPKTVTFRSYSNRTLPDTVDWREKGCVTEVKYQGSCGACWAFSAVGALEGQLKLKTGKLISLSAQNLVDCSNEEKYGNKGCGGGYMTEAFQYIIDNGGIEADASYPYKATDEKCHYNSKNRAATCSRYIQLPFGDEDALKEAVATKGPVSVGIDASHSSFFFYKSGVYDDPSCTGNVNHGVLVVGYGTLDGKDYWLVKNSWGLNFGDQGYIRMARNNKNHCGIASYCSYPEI

Procathepsin L [14] = target: Procathepsin L (Homo sapiens, UniProt P07711); assay: Inhibition of human cathepsin L
Procathepsin L (Homo sapiens, UniProt P07711), sequence (P07711 whole entry): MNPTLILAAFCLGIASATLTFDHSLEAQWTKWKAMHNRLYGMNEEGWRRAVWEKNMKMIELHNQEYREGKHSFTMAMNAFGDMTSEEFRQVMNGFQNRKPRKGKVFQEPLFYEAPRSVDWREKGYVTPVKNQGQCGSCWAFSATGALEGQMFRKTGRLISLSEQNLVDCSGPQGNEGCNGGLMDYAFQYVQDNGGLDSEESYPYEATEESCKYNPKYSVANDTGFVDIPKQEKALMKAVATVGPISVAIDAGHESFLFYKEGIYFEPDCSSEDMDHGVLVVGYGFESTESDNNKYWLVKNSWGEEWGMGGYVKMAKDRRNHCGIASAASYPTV

Procathepsin L [15] = target: T3, Procathepsin L (Rattus norvegicus, UniProt P07154); assay: Inhibition of rat liver lysosomal cathepsin L
T3 sequence (P07154 whole entry): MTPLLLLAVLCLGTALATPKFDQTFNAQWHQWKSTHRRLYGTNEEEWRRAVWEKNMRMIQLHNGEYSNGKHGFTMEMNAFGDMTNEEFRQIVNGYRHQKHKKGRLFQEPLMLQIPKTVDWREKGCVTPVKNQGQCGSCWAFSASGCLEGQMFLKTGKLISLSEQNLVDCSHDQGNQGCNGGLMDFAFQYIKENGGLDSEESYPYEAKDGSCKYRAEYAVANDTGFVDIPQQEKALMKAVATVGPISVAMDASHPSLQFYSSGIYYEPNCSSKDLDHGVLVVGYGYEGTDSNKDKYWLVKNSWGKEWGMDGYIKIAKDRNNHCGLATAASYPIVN

Procathepsin L [16] = target: T4, Procathepsin L (Mus musculus, UniProt P06797); assay: Inhibition of mouse recombinant cathepsin L
T4 sequence (P06797 whole entry): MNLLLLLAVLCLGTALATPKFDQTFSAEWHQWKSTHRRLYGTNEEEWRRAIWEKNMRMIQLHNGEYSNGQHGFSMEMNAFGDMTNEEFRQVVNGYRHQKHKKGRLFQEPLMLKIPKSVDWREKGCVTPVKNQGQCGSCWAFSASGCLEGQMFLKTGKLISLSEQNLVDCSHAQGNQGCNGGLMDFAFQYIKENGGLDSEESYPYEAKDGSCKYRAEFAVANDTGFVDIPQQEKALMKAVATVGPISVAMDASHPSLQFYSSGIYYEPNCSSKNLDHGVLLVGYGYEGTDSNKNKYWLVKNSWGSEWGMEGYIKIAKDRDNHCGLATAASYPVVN

Cathepsin B [17] = target: Cathepsin B (Homo sapiens, UniProt P07858); assay: Inhibition of human cathepsin B
Mus musculus [18] = organism: Mus musculus; assay: Drug level in C57BL/6 mouse blood at 0.05 w/w %; assay type: ADME, organism-based; settings: in vivo, read-out: Drug uptake
Mus musculus [19] = organism: Mus musculus; assay: AUC (0 to 24 hrs) in C57BL/6 mouse assessed as (R)-N-(1-cyanocyclopropyl)-3-(methylsulfonyl)-2-((S)-2,2,2-trifluoro-1-(4-fluorophenyl)ethylamino)propanamide levels at 0.05 w/w % after 5 days; assay type: ADME, organism-based, Plasma; parameters: time < 24 hr; settings: in vivo
Mus musculus [20] = assay: Increase in p10 fragment accumulation in C57BL/6 mouse at 3 mg/kg/day for 5 days relative to control; assay type: functional
Mus musculus [21] = organism: Mus musculus; assay: AUC (0 to 24 hrs) in C57BL/6 mouse assessed as (R)-N-(1-cyanocyclopropyl)-3-(methylsulfonyl)-2-((S)-2,2,2-trifluoro-1-(4-fluorophenyl)ethylamino)propanamide levels at 0.01 w/w % after 5 days; assay type: ADME, organism-based, Plasma; parameters: time < 24 hr; settings: in vivo
Mus musculus [22] = assay: AUC (0 to 24 hrs) in C57BL/6 mouse assessed as (R)-N-(1-cyanocyclopropyl)-3-(methylsulfonyl)-2-((S)-2,2,2-trifluoro-1-(4-fluorophenyl)ethylamino)propanamide levels at 50 mg/kg, po; assay type: ADME, organism-based, Plasma; parameters: time < 24 hr, dose 50 mg/kg, route oral; settings: in vivo
Mus musculus [23] = organism: Mus musculus; assay: Drug level in C57BL/6 mouse blood at 0.01 w/w %; assay type: ADME, organism-based; settings: in vivo, read-out: Drug uptake
Mus musculus [24] = assay: AUC (0 to 24 hrs) in C57BL/6 mouse assessed as (R)-N-(1-cyanocyclopropyl)-3-(methylsulfonyl)-2-((S)-2,2,2-trifluoro-1-(4-fluorophenyl)ethylamino)propanamide levels at 10 mg/kg, po; assay type: ADME, organism-based, Plasma; parameters: time < 24 hr, dose 10 mg/kg, route oral; settings: in vivo
Mus musculus [25] = organism: Mus musculus; assay: AUC (0 to 24 hrs) in C57BL/6 mouse assessed as (R)-N-(1-cyanocyclopropyl)-3-(methylsulfonyl)-2-((S)-2,2,2-trifluoro-1-(4-fluorophenyl)ethylamino)propanamide levels at 0.25 w/w % after 5 days; assay type: ADME, organism-based, Plasma; parameters: time < 24 hr; settings: in vivo
Mus musculus [26] = organism: Mus musculus; assay: Drug level in C57BL/6 mouse blood at 0.25 w/w %; assay type: ADME, organism-based; settings: in vivo, read-out: Drug uptake
Mus musculus [27] = assay: AUC (0 to 24 hrs) in C57BL/6 mouse assessed as (R)-N-(1-cyanocyclopropyl)-3-(methylsulfonyl)-2-((S)-2,2,2-trifluoro-1-(4-fluorophenyl)ethylamino)propanamide levels at 150 mg/kg, po; assay type: ADME, organism-based, Plasma; parameters: time < 24 hr, dose 150 mg/kg, route oral; settings: in vivo

Row | SMILES | IC50 (Cathepsin K [1]) [nM] | IC50 (Cathepsin B [3]) [nM] | IC50 (Cathepsin K [5]) [nM] | IC50 (Cathepsin S [6]) [nM] | IC50 (Cathepsin B [7]) [nM] | IC50 (Cathepsin S [10]) [nM] | IC50 (Cathepsin S [13]) [nM] | IC50 (Procathepsin L [14]) [nM] | IC50 (Procathepsin L [15]) [nM] | IC50 (Procathepsin L [16]) [nM] | IC50 (Cathepsin B [17]) [nM] | further results
1 | CS(=O)(=O)C[C@H](N[C@@H](c1ccc(F)cc1)C(F)(F)F)C(=O)NC1(C#N)CC1 | 405 | 233 | 1650 | 1.8 | 319 | 426 | 0.6 | 1010 | 3160 | 3040 | 1100 | half-life [2]: 5.2 h; Stability (Hepatocyte): Stable; Cmax [4]: 6.3 µM; IC50 [8]: 44 nM; AUC (Mus musculus [9]): 43 µM; AUC (Mus musculus [11]): 111 µM; bioavailability [12]: 48%
2 | C[S+]([O-])C[C@H](N[C@@H](c1ccc(F)cc1)C(F)(F)F)C(=O)NC1(C#N)CC1 (some centres undefined) | 1120 | 6700 | 5840 | 729 | > 10000 | > 10000 | 96 | > 10000 | > 10000 | > 10000 | 9720 | concentration (Mus musculus [18]): 6 µM; AUC (Mus musculus [19]): 31 µM; Activity (Mus musculus [20]): 24; AUC (Mus musculus [21]): 7 µM; AUC (Mus musculus [22]): 274 µM; concentration (Mus musculus [23]): 1 µM; AUC (Mus musculus [24]): 63 µM; AUC (Mus musculus [25]): 87 µM; concentration (Mus musculus [26]): 16 µM; AUC (Mus musculus [27]): 750 µM
